The subject of one data set is MDA-MB-231 cells. Briefly: WST-1 cell proliferation assay, MDA-MB-231. To be noted: for inhibition of proliferation: MDA-MB-231, WST-1, 72 hours. It is filed as cell-based, human. Here is the method:
MDA-MB-231 cells were seeded at 4×10^3 cells/well into a 96-well flat bottom tissue culture plate in a final volume of 100 ul and left to adhere for 24 hours at 37° C. and 5% CO2. Cells were then treated with inhibitors for 72 hours at a final concentration of 200, 100, 50, 25, 12.5 or 6.25 μM. Following inhibition, media was removed and replaced with 100 μL/well of WST-1 cell proliferation reagent (Sigma-Aldrich, Cat# 11644807001) at 1:10 final dilution. Absorbance was recorded at 450 nm at 1, 2, 3, and 4 hour incubation periods using a microplate spectrophotometer (with 30 sec mix time). Data represent a single independent experiment performed in triplicate, results are graphed as mean +/− standard error (SE).
(A) CT26, 4T1 or MDA-MB-231 Cells were treated with inhibitors for 72 hours. Following inhibition, media was removed and replaced with WST-1 cell proliferation reagent. Absorbance was recorded at 450 nm after 1 hour. Data represent a single independent experiment performed in triplicate. Results are graphed as mean +/− standard error (SE). B) MDA-MB-231 or CT26 cancer cells were treated with vehicle control, DL-2-Batch 1 (original stock), DL-2-Batch 2 (current stock), DL-2-TBAB or linear PDL1. Cells were permeabilised and were probed with the DUOLINK ligation assay. Cover slips were mounted on glass microscope slides with ProLong nucblue glass Antifade reagent (Life Technologies). PDL1Ac and IMPα1 DUOLINK Digital images were analysed using ImageJ software (ImageJ, NIH, Bethesda, MD, USA) and graphs represent the mean DOT Fluorescent Intensity in the nucleus or the cytoplasm compartments with significant differences calculated as per one-way ANOVA comparison. (C) MDA-MB-231 or CT26 cancer cells were treated with vehicle control, DL-2-Batch 1 (Original stock), DL-2-Batch 2 (current stock), DL-2-TBAB or linear PDL1. Cells were permeabilised and were probed with the DUOLINK ligation assay. Cover slips were mounted on glass microscope slides with ProLong nucblue glass Antifade reagent (Life Technologies). PDL1-unmodified and IMPα1 DUOLINK digital images were analysed using ImageJ software (ImageJ, NIH, Bethesda, MD, USA) and graphs represent the mean DOT fluorescent intensity in the nucleus or the cytoplasm compartments with significant differences calculated as per one-way ANOVA comparison.
4T1, CT26 or MDA-MB-231 cancer cell lines were treated with DL-2 or DL-2-D bicyclic inhibitors for 72 hours. Following inhibition, media was removed and replaced with WST-1 cell proliferation reagent. Absorbance was recorded at 450 nm after 1 hour. Data represent a single independent experiment performed in triplicate; results are graphed as mean +/− standard error (SE).
Cells weretreated with inhibitors for 48 hours. Following inhibition, media was removed and replaced with WST-1 cell proliferation reagent. Absorbance was recorded at 450 nm after 1 hour.

The test system of data set [1] is 4T1 TNBC metastatic cancer cells. Briefly: 4T1 model of metastatic breast cancer in mice. It is filed as in vivo, mouse. Here is the method:
4T1 Gold standard immunotherapy resistant mouse model mice obtained from the ARC, Perth and mice were inoculated with 4T1 TNBC metastatic cancer cells. DL-2 is supplied lyophilised in glass vials and was reconstituted using sodium chloride injection BP (0.9% saline) to make a stock solution of 10 mg/mL using a needle/syringe, DL-2 was mixed by inversion. Animals were then injected by intraperitoneal injection at 10, 20 or 30 mg/kg daily and rested over the weekend. Mice were monitored over time for body weight and tumour volume.
4T1 Gold standard immunotherapy resistant mouse model mice obtained from the ARC, Perth and mice were inoculated with 4T1 TNBC metastatic cancer cells. DL-2 or DL-2-D is supplied lyophilised in glass vials was reconstituted using sodium chloride injection BP (0.9% saline) to make a stock solution of 10 mg/mL using a needle/syringe, DL-2 was mixed by inversion. Animals were then injected by intraperitoneal injection and mice were monitored over time for body weight and tumour volume for DL-2 at 20 mg/kg every second day with resting over the weekend in conjunction with αPD1 or isotype control (10 mg/kg).
DL-2-D was mixed by inversion. Animals were then injected by intraperitoneal injection and mice were monitored over time for body weight and tumour volume for DL-2-D at a concentration of 20 mg/kg every two days (identical regime to αPD1) in conjunction with αPD1 or isotype control (10 mg/kg).

Entries after “also recorded” stand apart in the source; their conditions may differ.

These results are taken from US20240117005A1, “NOVEL BICYCLIC PEPTIDES” (THE COUNCIL OF THE QUEENSLAND INSTITUTE OF MEDICAL RESEARCH, priority 2021, published 2024).

As to `CCCCCCCCCCCCCC(=O)NC(C)C(=O)NC1CSCc2cc3cc(c2)CSC[C@H](NC(=O)[C@H](Cc2ccccc2)NC(=O)[C@H](C(C)CC)NC(=O)[C@H](Cc2ccccc2)NC(=O)[C@H]([C@@H](C)O)NC(=O)C(CC(C)C)NC1=O)C(=O)N[C@@H](CCCNC(C)=N)C(=O)N[C@@H](CC(C)C)C(=O)N[C@@H](CCCNC(=N)N)C(=O)N[C@@H](CCCCN)C(=O)NCC(=O)N[C@@H](CCCNC(=N)N)C(=O)NC(C(=O)N[C@@H](CCSC)C(=O)NC(CCSC)C(=O)N[C@@H](CC(=O)O)C(=O)NC(C(=O)N[C@@H](CCCCN)C(=O)NC(CCCCN)C(=O)O)C(C)C)CSC3` (mixture of isomers) [DL-2], the inhibition of proliferation result in the data set on MDA-MB-231 cells is reported as “able to inhibit proliferation; also recorded: significantly inhibit the proliferation”; with MDA-MB-231 cells (listed as DL-2-TBMB), “able to effectively inhibit the proliferation”. For the same compound, the “potency of proliferation inhibition relative to DL-1” value in the data set on MDA-MB-231 cells (MDA-MB-231, higher potency than DL-1) is 2-3 fold. Also, the body weight result was “No change” in data set [1] (DL-2 and anti-PD1 combination therapy); “No change” in data set [1] (DL-2 monotherapy). Further, the primary tumour volume entry is on record as “significantly reduces” in data set [1] (DL-2 in combination with an anti-PD1 antibody, 10 day treatment period); “reduces” in data set [1] (DL-2 monotherapy 20 and 30 mg/kg i.p., eight day treatment period). In addition, the “lung, liver or spleen weights” value in data set [1] (DL-2 in combination with anti-PD1) and in data set [1] (DL-2 monotherapy) was “does not alter” in each case. The tumour weight entry in data set [1] (DL-2 monotherapy 20 and 30 mg/kg, after 8 days) was “significantly reduced”.
